According to US20060166867A1, “Novel conjugates of polysaccharides and uses thereof” (priority 2003, published 2006):
“And” between values parts separate entries of the source, which are not always exact repeats. Identical values can stand only once.

Assays:
[1] = in vitro; assay type: cell-based; conditions: human; Table 4; tryphan blue exclusion assay for MT2 cells; read-out: Cytotoxicity
Procedure, shortened: (§1)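 MT2 or cMAGI reporter cells infected with wild-type or resistant HIV-1 at 0.2-0.5 MOI for 4 days at 37° C with varying pAAC concentrations. Infection scored by counting blue-stained cMAGI cells and by microscopic syncytium assessment in MT2; cytotoxicity by trypan blue exclusion, as % dead cells.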

[2] = tested on: A. baumannii E11436; assay: MIC, broth microdilution; assay type: cell-based, Acinetobacter baumannii; conditions: clinical isolate, Table 7
Experimental: Minimal Inhibition Concentration (MIC) measurements: The Minimal Inhibitory Concentration (MIC) was generally determined by the Broth Microdilution method (based on the protocol described in Clinical and Laboratory Standard Institute (CLSI) NCCLS (2003) M7-A6), as follows:
A stock solution of each of the tested compounds was prepared by diluting the compound to a 2,560 μg/ml concentration with an appropriate solvent. The stock solution was then serially 2-fold diluted in 96-well microdilution trays using Cation-Adjusted Mueller-Hinton Broth (CAMHB) until reaching the desired range of concentrations, whereas each well contained double the final working concentration. Each row further had one growth control well (medium+inoculum only), and one sterility control well (medium+tested compound). Plates were stored at −70° C. until used.
The tested microorganisms were used as fresh overnight cultures on blood agar (for gram-positive organisms) or MacConkey agar (for gram-negatives). A standardized inoculum suspension was prepared by the direct colony suspension method, using sterile saline (equivalent to a 0.5 McFarland standard).
Thus, 50 μl of the inoculum suspension were added to each tested well (except for the sterility control well), and […] was performed during 18-24 hours (depending on the tested microorganism or compound) at 35° C.

[3] = tested on: MT2 cells; assay: in vitro; assay type: cell-based; conditions: human
Procedure, shortened: as §1

[4] = tested on: Strep. Pyogenes (gr. A); assay: MIC, broth microdilution; assay type: cell-based; conditions: Streptococcus pyogenes; Gram positive clinical isolate; read-out: Minimum Inhibitory Concentration
[5] = tested on: S. epidermidis B32954; assay: MIC, broth microdilution; assay type: cell-based, Staphylococcus epidermidis; conditions: Staphylococcus epidermidis, B32954; Gram positive clinical isolate; read-out: Minimum Inhibitory Concentration
[6] = tested on: Enterococcus faecalis B84939-vancomycin^r; assay: MIC, broth microdilution; assay type: cell-based; conditions: Enterococcus faecalis; Gram positive clinical isolate; read-out: Minimum Inhibitory Concentration
[7] = tested on: Staphylococcus aureus ATCC 24213; assay: microbe, parasite or virus in culture; conditions: ATCC24213, read-out: Minimum Inhibitory Concentration
[8] = tested on: S. aureus MSSA; assay: microbe, parasite or virus in culture; conditions: Staphylococcus aureus, read-out: Minimum Inhibitory Concentration
[9] = tested on: Escherichia coli ATCC 25922; assay: microbe, parasite or virus in culture; conditions: ATCC25922, read-out: Minimum Inhibitory Concentration
[10] = tested on: Pseudomonas aeruginosa ATCC 27853; assay: microbe, parasite or virus in culture; conditions: ATCC27853, read-out: Minimum Inhibitory Concentration
[11] = tested on: Klebsiella pneumoniae ATCC 13883; assay: microbe, parasite or virus in culture; conditions: ATCC13883, read-out: Minimum Inhibitory Concentration
[12] = tested on: Proteus mirabilis ATCC 7002; assay: microbe, parasite or virus in culture; conditions: ATCC7002, read-out: Minimum Inhibitory Concentration
[13] = tested on: Acinetobacter baumannii ATCC 19606; assay: microbe, parasite or virus in culture; conditions: ATCC19606, read-out: Minimum Inhibitory Concentration
[14] = tested on: K. pneumoniae-ESBL negative; assay: microbe, parasite or virus in culture; conditions: Klebsiella pneumoniae, read-out: Minimum Inhibitory Concentration
[15] = tested on: Enterobacter cloacae; assay: microbe, parasite or virus in culture; conditions: read-out: Minimum Inhibitory Concentration
[16] = tested on: Enterobacter aerogenes; assay: microbe, parasite or virus in culture; conditions: Klebsiella aerogenes, read-out: Minimum Inhibitory Concentration
[17] = tested on: P. aeruginosa-gentamicin^s, meropenem^s; assay: microbe, parasite or virus in culture; conditions: Pseudomonas aeruginosa, read-out: Minimum Inhibitory Concentration
[18] = tested on: A. baumannii-amikacin^r, meropenem^r; assay: microbe, parasite or virus in culture; conditions: Acinetobacter baumannii, read-out: Minimum Inhibitory Concentration
[19] = tested on: A. baumannii R16998; assay: microbe, parasite or virus in culture; conditions: Acinetobacter baumannii, R16998, read-out: Minimum Inhibitory Concentration

Compound: CC(=O)N[C@H](CCCNC(=N)N)C(=O)N[C@H](CCCNC(=N)N)C(=O)N[C@H](CCCNC(=N)N)C(=O)N[C@H](CCCNC(=N)N)C(=O)N[C@H](CCCNC(=N)N)C(=O)N[C@H](CCCNC(=N)N)C(=O)N[C@H](CCCNC(=N)N)C(=O)N[C@H](CCCNC(=N)N)C(=O)N[C@H](CCCNC(=N)N)C(=O)O [Compound 12, D-Arg-9-mer-NHAc]
- CC50 [1]: 150 µM

Compound: D-Arg-9-mer-neomycin [Compound 14]
- Minimum Inhibitory Concentration [2]: 64.0 mg/L

Compound: NCC1OC(OC2C(CO)OC(OC3C(O)C(N)CC(N)C3OC3OC(CN)C(O)C(O)C3N)C2O)C(N)C(O)C1O (stereo not shown) [Neomycin]
- Cytotoxicity [3]: >300 µM
- MIC [4]: 16 µg/mL and 17.6 µM
- MIC [5]: 0.5 µg/mL and 0.55 µM
- MIC [6]: 64 µg/mL and 70.4 µM
- MIC [7]: 1.5 µg/mL and 1.65 µM
- MIC [8]: 1 µg/mL and 1.1 µM
- MIC [9]: 1 µg/mL and 1.1 µM
- MIC [10]: 128 µg/mL and 141 µM
- MIC [11]: 0.7 µg/mL and 0.77 µM
- MIC [12]: 1.5 µg/mL and 1.65 µM
- MIC [13]: 6 µg/mL and 6.6 µM
- MIC [14]: 0.7 µg/mL and 0.77 µM
- MIC [15]: 4 µg/mL and 4.4 µM
- MIC [16]: 0.7 µg/mL and 0.77 µM
- MIC [17]: 16 µg/mL and 17.6 µM
- MIC [18]: 106 µM and 96 µg/mL
- MIC [19]: 32 µg/mL and 35.2 µM
